Experimental findings from patent publication US10980776B2, “Synergistic pharmaceutical combination for the treatment of squamous cell carcinoma of head and neck” (Piramal Enterprises Limited, priority 2011, dated 2021) are described below.

This test deals with Detroit-562 cells. The test can be described thus: Combination studies (single and sequential combination dosing), % cytotoxicity in Detroit-562 cells. The settings on record: Homo sapiens, Detroit 562, Detroit-562; for cytotoxicity at 14.1 µM: single agent at IC50 (compound B 14.1 μM); for cytotoxicity at 25.2 µM: single agent at IC70 (compound B 25.2 μM). The procedure:
Logarithmically growing cells were plated at a density of 3×10^3 cells/well and allowed to recover overnight. […] After 72 hours, cell toxicity was determined by CCK-8 (Cell Counting Kit-8) reagent (Dojindo Molecular Technologies, Japan); WST-8 (2-(2-methoxy-4-nitrophenyl)-3-(4-nitrophenyl)-5-(2, 4-disulfophenyl)]-2H-tetrazolium, monosodium salt) assay. In accordance with the manufacturer's instructions, 5 μl/well CCK-8 reagent was added and plates were incubated for 2 hours. The toxicity was determined by measuring the absorbance on Tecan Sapphire multi-fluorescence micro-plate reader (Tecan, Germany, GmbH) at a wavelength of 450 nm corrected to 650 nm and normalized to controls.
CCK-8 allows convenient assays using Dojindo's tetrazolium salt, WST [8[(2-(2-methoxy-4-nitrophenyl)-3-(4-nitrophenyl)-5-(2,4-disulfophenyl)-2H-tetrazolium, monosodium salt], which produces a water-soluble formazan dye upon bioreduction in the presence of an electron carrier, 1-Methoxy PMS. CCK-8 solution is added directly to the cells; no pre-mixing of components is required. CCK-8 is a sensitive nonradioactive colorimetric assay for determining the number of viable cells in cell proliferation and cytotoxicity assays. WST-8 is bio-reduced by cellular dehydrogenases to an orange formazan product that is soluble in tissue culture medium. The amount of formazan produced is directly proportional to the number of living cells. The detection sensitivity of cell proliferation assays using WST-8 is higher than assays using the other tetrazolium salts such as MIT, XTT, MTS or WST-1. Optical Density was determined at measurement wavelength of 450 nm and reference wave length of 630 nm.
Sorafenib in the following dose of final concentration 1.8 μM and compound A in the following doses of final concentration 0.5 μM, 1.3 μM and 12.1 μM were analyzed in single dose and in all possible combinations of the dose range for the two anticancer agents mentioned above. The sequence of treatment is as follows; Detroit-562 cells were treated with sorafenib for 0 to 24 hrs. At the end of 24 hrs the cells were washed two times with plain MEM medium. Fresh MEM with 10% serum (200 μL/well) was added, followed by treatment with compound A from 24 hrs to 96 hrs.
Sorafenib in the following dose of final concentration 1.8 μM and compound B in the following doses of final concentration 2.7 μM, 14.1 μM and 25.2 μM were analyzed in single dose and in all possible combinations of the dose range for the two anticancer agents mentioned above. The sequence of treatment is as follows; the Detroit-562 cells were treated with sorafenib for 0 to 24 hrs. At the end of 24 hrs the cells were washed two times with plain MEM medium. Fresh MEM with 10% serum (200 μL/well) was added, followed by treatment with compound B from 24 hrs to 96 hrs.
Lapatinib in the following dose of final concentration 1 μM and compound A in the following doses of final concentration 0.5 μM, 1.3 μM and 12.1 μM were analyzed in single dose and in all possible combinations of the dose range for the two anticancer agents mentioned above. The sequence of treatment is as follows; the Detroit-562 cells were treated with lapatinib for 0 to 24 hrs. At the end of 24 hrs the cells were washed two times with plain MEM medium. Fresh MEM with 10% serum (200 μL/well) was added, followed by treatment with compound A from 24 hrs to 96 hrs.
Lapatinib in the following dose of final concentration 1.0 μM and compound B in the following doses of final concentration 2.7 μM, 14.1 μM and 25.2 μM were analyzed in single dose and in all possible combinations of the dose range for the two drugs mentioned above. The sequence of treatment is as follows; the Detroit-562 cells were treated with lapatinib for 0 to 24 hrs. At the end of 24 hrs the cells were washed two times with plain MEM medium. Fresh MEM with 10% serum (200 μL/well) was added, followed by treatment with compound A from 24 hrs to 96 hrs.

As for `CN1CC[C@@H](c2c(O)cc(O)c3c(=O)cc(-c4ccc(C(F)(F)F)cc4Cl)oc23)[C@@H]1CO.Cl` [Compound B, (+)-trans-2-(2-chloro-4-trifluoromethyl-phenyl)-5,7-dihydroxy-8-(2-hydroxymethyl-1-methyl-pyrrolidin-3-yl)-chromen-4-one hydrochloride], the cytotoxicity at 2.7 µM was determined as 15% (single agent at IC30 (lapatinib 1.0 μM; compound B 2.7 μM)) and 15% (single agent at IC30 (sorafenib 1.8 μM; compound B 2.7 μM)). Moreover, the cytotoxicity at 14.1 µM is 18% (lapatinib study) and 19% (sorafenib study). The cytotoxicity at 25.2 µM runs as follows: (lapatinib study) 30%; (sorafenib study) 26%.
